Data on five molecules can be found in PubChem BioAssay AID1845199 (Molecular Pharmacology Branch, DTP, NCI, 2023).

“And” between values parts separate entries of the source, which are not always exact repeats. Identical values can stand only once.

This assay concerns 556581-035-R-J1 tumor spheroid viability, % test/control. The experiment in a line: Anticancer human tumor 556581-035-R-J1 patient-derived ovarian carcinoma cell line growth inhibition. Particulars: spheroids with HUVEC and MSC; for viability, T/C: stronger effect = lower value. Put shortly:
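Single agents and combinations were tested on spheroids built from tumor cells plus HUVEC and hMSC, at half-log dilutions starting at or near clinical Cmax, else 10 microM; final DMSO 0.25% (v/v).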

The mark [1] stands for this setting: curve of first compound, second compound 30 pM.
Setting [2] is: curve of first compound, second compound 94.9 pM.
Setting [3] is: curve of first compound, second compound 0.0003 µM.
The mark [4] stands for this setting: curve of first compound, second compound 0.000949 µM.
[5] abbreviates: curve of first compound, second compound 0.003 µM.

The viability, T/C is the result in the treated group divided by that in the control group, in per cent. A word on the IC50: it is the point on the concentration scale where inhibition reaches its midpoint.
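Further: spheroids exposed to compounds for 7 days before viability read.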

Turning to `COc1cc2c(cc1O)CCNC21CSC2c3c(OC(C)=O)c(C)c4c(c3C(COC1=O)N1C(O)C3Cc5cc(C)c(OC)c(O)c5C(C21)N3C)OCO4` (centres undefined), the viability, T/C (compound 94.9 pM) was 106% [middle of 10 runs]; the viability, T/C (compound 0.0003 µM) was 95.4% [middle of 10 runs]; the viability, T/C (compound 0.000949 µM) was 41% [middle of 10 runs]; the viability, T/C (compound 0.003 µM) was 0.66% [middle of 10 runs]. Besides, the 50% inhibitory concentration (IC50) (compound alone, run of 10/25/2019) is 0.795 nM [middle of 10 runs].

As to `[2H]c1nc(C)nc([2H])c1-c1cc(NC[C@@H](C)c2cccc3c(C(=O)NC)ccnc23)ncn1`, the viability, T/C was 112% and 111% and 102% (compound 0.0316 µM); 111% and 107% (2×) (compound 0.1 µM); 108% and 109% and 110% (compound 0.316 µM); 113% and 105% and 101% (compound 1 µM); 116% and 106% and 105% (compound 3.16 µM); 115% and 111% and 105% (compound 10 µM). The IC50 (curve of compound) was over 10 µM.

Turning to `Cn1ncnc1[C@H]1c2n[nH]c(=O)c3cc(F)cc(c23)N[C@@H]1c1ccc(F)cc1`, the viability, T/C is, setting by setting: (compound 0.00949 µM) 110% and 95.9% and 100%; (compound 0.03 µM) 107% and 97.1% and 105%; (compound 0.0949 µM) 102% and 89.2% and 95.8%; (compound 0.3 µM) 97.6% and 80.2% and 83.6%; (compound 0.949 µM) 77.9% and 69.9% and 76%; (compound 3 µM) 60.8% and 52.1% and 56.5%. Where the note is “curve of compound”, the IC50 is over 3 µM.

With `O=C(c1cc(Cc2n[nH]c(=O)c3ccccc23)ccc1F)N1CCN(C(=O)C2CC2)CC1` + COc1cc2c(cc1O)CCNC21CSC2c3c(OC(C)=O)c(C)c4c(c3C(COC1=O)N1C(O)C3Cc5cc(C)c(OC)c(O)c5C(C21)N3C)OCO4, the IC50 runs as follows: under setting [1], over 30 µM; under setting [2], over 30 µM; under setting [3], over 30 µM; under setting [4], under 0.0949 µM; under setting [5], under 0.0949 µM. Moreover, the viability, T/C (second compound 30 pM, first compound 0.0949 µM) was 104%; the viability, T/C (second compound 30 pM, first compound 0.3 µM) is 105%; the viability, T/C (second compound 30 pM, first compound 0.949 µM) was 103%; the viability, T/C (second compound 30 pM, first compound 3 µM) is 93.7%; the viability, T/C (second compound 30 pM, first compound 9.49 µM) is 79.7%; the viability, T/C (second compound 30 pM, first compound 30 µM) was 63.5%. Also, the viability, T/C (second compound 94.9 pM, first compound 0.0949 µM) was 98.1%; the viability, T/C (second compound 94.9 pM, first compound 0.3 µM) was 103%; the viability, T/C (second compound 94.9 pM, first compound 0.949 µM) was 96.2%; the viability, T/C (second compound 94.9 pM, first compound 3 µM) is 90%; the viability, T/C (second compound 94.9 pM, first compound 9.49 µM) was 75.6%; the viability, T/C (second compound 94.9 pM, first compound 30 µM) is 63%. Also, the viability, T/C by setting is: (second compound 0.0003 µM, first compound 0.0949 µM) 89.5%; (second compound 0.0003 µM, first compound 0.3 µM) 88.7%; (second compound 0.0003 µM, first compound 0.949 µM) 88.6%; (second compound 0.0003 µM, first compound 3 µM) 87.2%; (second compound 0.0003 µM, first compound 9.49 µM) 66.8%; (second compound 0.0003 µM, first compound 30 µM) 50.1%. Besides, the viability, T/C (second compound 0.000949 µM, first compound 0.0949 µM) was 35%; the viability, T/C (second compound 0.000949 µM, first compound 0.3 µM) was 27.9%; the viability, T/C (second compound 0.000949 µM, first compound 0.949 µM) is 27.9%; the viability, T/C (second compound 0.000949 µM, first compound 3 µM) was 23.4%; the viability, T/C (second compound 0.000949 µM, first compound 9.49 µM) was 7.48%; the viability, T/C (second compound 0.000949 µM, first compound 30 µM) was 1.51%. In addition, the viability, T/C (second compound 0.003 µM, first compound 0.0949 µM) was 0.86%; the viability, T/C (second compound 0.003 µM, first compound 0.3 µM) was 0.88%; the viability, T/C (second compound 0.003 µM, first compound 0.949 µM) was 0.88%; the viability, T/C (second compound 0.003 µM, first compound 3 µM) is 1.14%; the viability, T/C (second compound 0.003 µM, first compound 9.49 µM) was 1.42%; the viability, T/C (second compound 0.003 µM, first compound 30 µM) is 2.1%.

For `COc1cc(C)[nH]c(=O)c1CN1CCc2c(Cl)cc(C(OC)C3COC3)c(Cl)c2C1=O` (centres undefined) + COc1cc2c(cc1O)CCNC21CSC2c3c(OC(C)=O)c(C)c4c(c3C(COC1=O)N1C(O)C3Cc5cc(C)c(OC)c(O)c5C(C21)N3C)OCO4, the half-inhibitory concentration (IC50) by setting is: under setting [1], over 10 µM; under setting [2], over 10 µM; under setting [3], over 10 µM; under setting [4], under 0.0316 µM; under setting [5], under 0.0316 µM. Moreover, the viability, T/C is, setting by setting: (second compound 30 pM, first compound 0.0316 µM) 106%; (second compound 30 pM, first compound 0.1 µM) 108%; (second compound 30 pM, first compound 0.316 µM) 105%; (second compound 30 pM, first compound 1 µM) 115%; (second compound 30 pM, first compound 3.16 µM) 116%; (second compound 30 pM, first compound 10 µM) 113%. For the same molecule, the viability, T/C (second compound 94.9 pM, first compound 0.0316 µM) is 103%; the viability, T/C (second compound 94.9 pM, first compound 0.1 µM) was 101%; the viability, T/C (second compound 94.9 pM, first compound 0.316 µM) is 108%; the viability, T/C (second compound 94.9 pM, first compound 1 µM) was 111%; the viability, T/C (second compound 94.9 pM, first compound 3.16 µM) was 108%; the viability, T/C (second compound 94.9 pM, first compound 10 µM) is 110%. Further, the viability, T/C was 92.4% (second compound 0.0003 µM, first compound 0.0316 µM); 95% (second compound 0.0003 µM, first compound 0.1 µM); 100% (second compound 0.0003 µM, first compound 0.316 µM); 101% (second compound 0.0003 µM, first compound 1 µM); 98.2% (second compound 0.0003 µM, first compound 3.16 µM); 93.7% (second compound 0.0003 µM, first compound 10 µM). Moreover, the viability, T/C is 44.6% (second compound 0.000949 µM, first compound 0.0316 µM); 46.5% (second compound 0.000949 µM, first compound 0.1 µM); 41.4% (second compound 0.000949 µM, first compound 0.316 µM); 36.7% (second compound 0.000949 µM, first compound 1 µM); 32.1% (second compound 0.000949 µM, first compound 3.16 µM); 17.6% (second compound 0.000949 µM, first compound 10 µM). For the same molecule, the viability, T/C was 0.61% (second compound 0.003 µM, first compound 0.0316 µM); 0.67% (second compound 0.003 µM, first compound 0.1 µM); 2.15% (second compound 0.003 µM, first compound 0.316 µM); 0.7% (second compound 0.003 µM, first compound 1 µM); 0.66% (second compound 0.003 µM, first compound 3.16 µM); 1.02% (second compound 0.003 µM, first compound 10 µM).
